Source: US4795812A, “4-substituted-6-aryl-pyrimidine compounds” (The Upjohn Company, priority 1986, dated 1989)
≈ marks a conversion by molar mass, not a printed value. Where two headings read alike, the source gives them in different places. One block for each compound: values may come before it.

Assays:
[1] = tested on: L-1210 mouse leukemia cells; assay: L-1210 tube dilution assay, inhibition of mouse leukemia cell growth in vitro; assay type: cell-based; details: for inhibition of growth of L-1210 cells (in words): in vitro; for IC50 / IC90: Mus musculus
Description: ID50 and ID90 refer to the concentration of compound needed to inhibit cell growth by 50 and 90 percent, respectively.

B. fragilis = assay: In vitro disk plate assay, B. fragilis; assay type: cell-based; details: medium H (Schaedler Agar); 1 mg/ml in distilled water, 1/2 inch disk, 18 hours
Experimental: (§1) The antibacterial spectrum of 4-(1-azindinyl)-6-phenyl-2-pyrimidinamine was determined in an in vitro disk plate assay. The assay procedure is as follows:
(§2) A solution of 4-(1-aziridinyl)-6-phenyl-2-pyrimidinamine was prepared at 1 mg/ml in distilled water. Paper assay disks (1/2 inch) were dripped into the solution and spotted on seeded agar trays.

M. avium = assay: In vitro disk plate assay, M. avium; assay type: cell-based; details: medium D (Brain Heart Infusion Agar); 1 mg/ml in distilled water, 1/2 inch disk, 18 hours
Experimental: as §1, §2

S. pastorianus = assay: In vitro disk plate assay, S. pastorianus; assay type: cell-based; details: medium G (Gray's Medium); 1 mg/ml in distilled water, 1/2 inch disk, 18 hours
Experimental: as §1, §2

[2] = tested on: Rhodopseudomonas spheroides; assay: In vitro disk plate assay, Rhodopseudomonas spheroides; assay type: cell-based; details: medium F (Plate Count Medium); 1 mg/ml in distilled water, 1/2 inch disk, 18 hours
Experimental: as §1, §2

S. lutea = assay: In vitro disk plate assay, S. lutea; assay type: cell-based; details: 1 mg/ml in distilled water, 1/2 inch disk, 18 hours
Experimental: as §1, §2

P. vulgaris = assay: In vitro disk plate assay, Proteus vulgaris; assay type: cell-based
Experimental: as §1, §2

Ps. aeruginosa = assay: In vitro disk plate assay, Ps. aeruginosa; assay type: cell-based; details: medium B (Nutrient Agar); 1 mg/ml in distilled water, 1/2 inch disk, 18 hours
Experimental: as §1, §2

E. coli = assay: In vitro disk plate assay, E. coli; assay type: cell-based; details: 1 mg/ml in distilled water, 1/2 inch disk, 18 hours
Experimental: as §1, §2

K. pneumoniae = assay: In vitro disk plate assay, K. pneumoniae; assay type: cell-based; details: medium A (Streptomycin Assay Agar); 1 mg/ml in distilled water, 1/2 inch disk, 18 hours
Experimental: as §1, §2

S. schottmuelleri = assay: In vitro disk plate assay, S. schottmuelleri; assay type: cell-based; details: medium B (Nutrient Agar); 1 mg/ml in distilled water, 1/2 inch disk, 18 hours
Experimental: as §1, §2

S. pyogenes = assay: In vitro disk plate assay, S. pyogenes; assay type: cell-based, Streptococcus pyogenes; details: medium D (Brain Heart Infusion Agar); 1 mg/ml in distilled water, 1/2 inch disk, 18 hours
Experimental: as §1, §2

P388 leukemia = assay: In vivo P-388 mouse leukemia test (i.p.); details: for % ILS (% increase in life span of treated compared to control animals) / Weight Change: daily × 9, i.p.; for % ILS (% increase in life span of treated compared to control animals): Klucel suspension; for Weight Change: between days 1 and 5 after tumor inoculation
Description: (§3) The P-388 mouse leukemia test is described in detail in a publication by G. L. Neil, et al, Cancer Treatment Reports 63, 1971-1978 (1979).
(§4) ^a mg/kg/day, daily × 9, i.p., administered as a Klucel
(§5) ^b % increase in life span of treated compared to control animals.
(§6) ^c g/mouse between days 1 and 5 after tumor inoculation.
(§7) The NCI-designated criteria of significant activity for synthetic agents in these 3 systems are: for P388, 20% ILS; L1210 and B16, 25% ILS.

S. aureus = assay: In vitro disk plate assay, S. aureus; assay type: cell-based; details: medium B (Nutrient Agar); 1 mg/ml in distilled water, 1/2 inch disk, 18 hours
Experimental: as §1, §2

B-16 melanoma = assay: In vivo B-16 melanoma test in mice (i.p.); design: species or system mouse; details: for % ILS (% increase in life span of treated compared to control animals) / Weight Change: i.p.-B16, daily × 9, i.p.; for % ILS (% increase in life span of treated compared to control animals): Klucel suspension; for Weight Change: between days 1 and 5 after tumor inoculation
Description: as §3, §4, §5, §6, §7

L-1210 leukemia = assay: In vivo L-1210 leukemia test in mice (i.p.); design: species or system mouse; details: for % ILS (% increase in life span of treated compared to control animals) / Weight Change: i.p.-L1210, daily × 9, i.p.; for % ILS (% increase in life span of treated compared to control animals): Klucel suspension; for Weight Change: between days 1 and 5 after tumor inoculation
Description: as §3, §4, §5, §6, §7

test organisms = assay: In vitro disk plate assay, test organisms other than Proteus vulgaris; assay type: cell-based
Experimental: as §1, §2

[3] = L1210 cells in vitro, 50 percent inhibition of cell growth, read-out: L1210 ID50
[4] = L1210 cells in vitro, 90 percent inhibition of cell growth, read-out: L1210 ID90
[5] = i.p.-P388, first series, 5 mg/kg/day
[6] = i.p.-P388, first series, 10 mg/kg/day
[7] = i.p.-P388, first series, 20 mg/kg/day
[8] = i.p.-P388, first series, 40 mg/kg/day
[9] = i.p.-P388, second series, 5 mg/kg/day
[10] = i.p.-P388, second series, 10 mg/kg/day
[11] = i.p.-P388, second series, 20 mg/kg/day
[12] = i.p.-P388, second series, 40 mg/kg/day

Compound: Nc1nc(Cl)c(Cl)c(-c2ccccc2)n1 [Example 7, 4,5-dichloro-6-phenyl-2-pyrimidinamine]
inhibition of growth of L-1210 cells (in words) [1]: inhibit the growth of L-1210 mouse leukemia cells in vitro

Compound: Nc1nc(-c2ccccc2)c(Br)c(N2CC2)n1 [drawing 5]
IC50 ([1]; L1210, read-out: L1210 ID50): 1.2 µg/mL (≈ 4.12 µM) | IC90 ([1]; L1210, read-out: L1210 ID90): 3.2 µg/mL (≈ 11 µM)

Compound: Nc1nc(Cl)cc(-c2ccccc2)n1 [drawing 11]
IC50 [1, 3]: 8.2 µg/mL (≈ 39.9 µM) | IC90 [1, 4]: 19 µg/mL (≈ 92.4 µM)

Compound: Nc1nc(NCCN2CC2)c(F)c(-c2ccccc2)n1 [drawing 6]
IC50 ([1]; L1210, read-out: L1210 ID50): 0.78 µg/mL (≈ 2.85 µM) | IC90 ([1]; L1210, read-out: L1210 ID90): 2.1 µg/mL (≈ 7.68 µM)

Compound: Nc1nc(-c2ccccc2)c(Br)c(N2CC2)n1 [Example 3, 4-(1-aziridyl)-5-bromo-6-phenyl-2-pyrimidinamine]
inhibition of growth of L-1210 cells (in words) [1]: inhibit the growth of L-1210 mouse leukemia cells in vitro

Compound: Nc1nc(-c2ccccc2)cc(N2CC2)n1 [Example 2, 4-(1-aziridyl)-6-phenyl-2-pyrimidinamine]
Zone of Inhibition (B. fragilis): 23 mm | Zone of Inhibition (M. avium): 0 mm | Zone of Inhibition (S. pastorianus): 0 mm | Zone of Inhibition [2]: 18 mm | Zone of Inhibition (S. lutea; S. lutea+, medium B (Nutrient Agar)): 0 mm | Zone of Inhibition (S. lutea; S. luteau, medium C (PenAssay Seed Agar)): 0 mm | Zone of Inhibition (P. vulgaris; medium B (Nutrient Agar), 1 mg/ml in distilled water, 1/2 inch disk, 18 hours): 0 mm | Zone of Inhibition (Ps. aeruginosa): 0 mm | Zone of Inhibition (E. coli; medium B (Nutrient Agar)): 0 mm | Zone of Inhibition (E. coli; medium E (Synthetic Medium)): 0 mm | Zone of Inhibition (K. pneumoniae): 0 mm | Zone of Inhibition (S. schottmuelleri): 0 mm | Zone of Inhibition (S. pyogenes): 21 mm | % ILS (% increase in life span of treated compared to control animals) (P388 leukemia; [5]): 10% | Weight Change (P388 leukemia; [5]): +1.8 g/mouse | % ILS (% increase in life span of treated compared to control animals) (P388 leukemia; [6]): 11% | Weight Change (P388 leukemia; [6]): +2.1 g/mouse | % ILS (% increase in life span of treated compared to control animals) (P388 leukemia; [7]): 25% | Weight Change (P388 leukemia; [7]): -0.7 g/mouse | % ILS (% increase in life span of treated compared to control animals) (P388 leukemia; [8]): 47% | Weight Change (P388 leukemia; [8]): -3.8 g/mouse | % ILS (% increase in life span of treated compared to control animals) (P388 leukemia; [9]): 14% | Weight Change (P388 leukemia; [9]): +1.8 g/mouse | % ILS (% increase in life span of treated compared to control animals) (P388 leukemia; [10]): 11% | Weight Change (P388 leukemia; [10]): +2.1 g/mouse | % ILS (% increase in life span of treated compared to control animals) (P388 leukemia; [11]): 17% | Weight Change (P388 leukemia; [11]): +0.5 g/mouse | % ILS (% increase in life span of treated compared to control animals) (P388 leukemia; [12]): 26% | Weight Change (P388 leukemia; [12]): -2.0 g/mouse | in vivo activity against P388 leukemia (in words) (P388 leukemia; mice): demonstrated activity in vivo against P388 and L-1210 leukemias in mice | Zone of Inhibition (S. aureus): 0 mm | inhibition of growth of L-1210 cells (in words) [1]: inhibit the growth of L-1210 mouse leukemia cells in vitro | % ILS (% increase in life span of treated compared to control animals) (B-16 melanoma; 6.3 mg/kg/day): 2% | Weight Change (B-16 melanoma; 6.3 mg/kg/day): +1.2 g/mouse | % ILS (% increase in life span of treated compared to control animals) (B-16 melanoma; 12.5 mg/kg/day): 4% | Weight Change (B-16 melanoma; 12.5 mg/kg/day): +0.3 g/mouse | % ILS (% increase in life span of treated compared to control animals) (B-16 melanoma; 25 mg/kg/day): 11% | Weight Change (B-16 melanoma; 25 mg/kg/day): -0.5 g/mouse | % ILS (% increase in life span of treated compared to control animals) (B-16 melanoma; 50 mg/kg/day): 7% | Weight Change (B-16 melanoma; 50 mg/kg/day): -3.0 g/mouse | in vivo activity against B-16 melanoma (in words) (B-16 melanoma; mice): no in vivo activity in mice against B-16 melanoma | % ILS (% increase in life span of treated compared to control animals) (L-1210 leukemia; 5 mg/kg/day): 0% | Weight Change (L-1210 leukemia; 5 mg/kg/day): +1.2 g/mouse | % ILS (% increase in life span of treated compared to control animals) (L-1210 leukemia; 10 mg/kg/day): 0% | Weight Change (L-1210 leukemia; 10 mg/kg/day): +1.5 g/mouse | % ILS (% increase in life span of treated compared to control animals) (L-1210 leukemia; 20 mg/kg/day): 9% | Weight Change (L-1210 leukemia; 20 mg/kg/day): +0.6 g/mouse | % ILS (% increase in life span of treated compared to control animals) (L-1210 leukemia; 40 mg/kg/day): 24% | Weight Change (L-1210 leukemia; 40 mg/kg/day): -2.4 g/mouse | in vivo activity against L-1210 leukemia (in words) (L-1210 leukemia; mice): demonstrated activity in vivo against P388 and L-1210 leukemias in mice

Compound: Nc1nc(Cl)c(I)c(-c2ccccc2)n1 [Example 8, 4-chloro-5-iodo-6-phenyl-2-pyrimidinamine]
inhibition of growth of L-1210 cells (in words) [1]: inhibit the growth of L-1210 mouse leukemia cells in vitro

IC50 [1, 3]: 0.64 µg/mL (≈ 2.25 µM) | IC90 [1, 4]: 1.6 µg/mL (≈ 5.62 µM)
Compound: Nc1nc(Cl)c(Br)c(-c2ccccc2)n1 [drawing 10]

Compound: Nc1nc(NCCN2CC2)c(F)c(-c2ccccc2)n1 [Example 5, N'-[2-(1-aziridyl)ethyl]-5-fluoro-6-phenyl-2,4-pyrimidinediamine]
inhibition of growth of L-1210 cells (in words) [1]: inhibit the growth of L-1210 mouse leukemia cells in vitro

Compound: Nc1nc(Cl)c(F)c(-c2ccccc2)n1 [Example 4, 4-chloro-5-fluoro-6-phenyl-2-pyrimidinamine]
inhibition of growth of L-1210 cells (in words) [1]: inhibit the growth of L-1210 mouse leukemia cells in vitro

Compound: Nc1nc(Cl)cc(-c2ccccc2)n1 [Example 1, 4-chloro-6-phenyl-2-pyrimidinamine]
zone of inhibition at 1000 µg/mL (P. vulgaris; 18 h, Proteus vulgaris, above-identified in vitro disk plate assay, medium not given): 20 mm | inhibition of growth of L-1210 cells (in words) [1]: inhibit the growth of L-1210 mouse leukemia cells in vitro | antibacterial activity against the other test organisms (in words) (test organisms): No other antibacterial activity against the test organisms was observed

Compound: Nc1nc(Cl)c(Br)c(-c2ccccc2)n1 [Example 6, 5-bromo-4-chloro-6-phenyl-2-pyrimidinamine]
inhibition of growth of L-1210 cells (in words) [1]: inhibit the growth of L-1210 mouse leukemia cells in vitro

IC50 [1, 3]: 1.8 µg/mL (≈ 5.43 µM) | IC90 [1, 4]: 3.9 µg/mL (≈ 11.8 µM)
Compound: Nc1nc(Cl)c(I)c(-c2ccccc2)n1 [drawing 9]

IC50 [1, 3]: 0.18 µg/mL (≈ 0.805 µM) | IC90 [1, 4]: 0.55 µg/mL (≈ 2.46 µM)
Compound: Nc1nc(Cl)c(F)c(-c2ccccc2)n1 [drawing 7]

IC50 [1, 3]: 0.91 µg/mL (≈ 3.79 µM) | IC90 [1, 4]: 2.1 µg/mL (≈ 8.75 µM)
Compound: Nc1nc(Cl)c(Cl)c(-c2ccccc2)n1 [drawing 8]
